# Molecular target: WDR5 (Homo sapiens (Human), UniProt P61964)
# Test: Surface Plasmon Resonance (SPR) assay, KD and residence time
# Type: binding
# Conditions: surface plasmon resonance (SPR); read-out: WDR5 binding affinity (KD)
row,Structure (SMILES),Kd [nM]
1,"CC1CN(c2cc(F)c(-c3cc(C(N)=O)c(F)cc3F)cc2NC(=O)c2ccc(F)cc2C(F)(F)F)CCN1C (stereo in doubt) [Example 635, 2,4-difluoro-5-[2-fluoro-5-[[4-fluoro-2-(trifluoromethyl)benzoyl]amino]-4-[(3R)-3,4-dimethylpiperazin-1-yl]phenyl]benzamide]",66.9
2,"CC1CN(c2cc(F)c(-c3ccc(C(N)=O)c(F)c3)cc2NC(=O)c2cn(C)c(=O)cc2C(F)F)CCN1C (stereo in doubt) [Example 652, N-[5-(4-carbamoyl-3-fluorophenyl)-4-fluoro-2-[(3R)-3,4-dimethylpiperazin-1-yl]phenyl]-4-(difluoromethyl)-1-methyl-6-oxopyridine-3-carboxamide]",5.29
3,"CNC(=O)c1ccc(-c2cc(NC(=O)c3cn(C)c(=O)cc3C(F)F)c(N3CCN(C)C(C)C3)cc2F)cc1F (stereo in doubt) [Example 653, 4-(difluoromethyl)-N-[4-fluoro-5-[3-fluoro-4-(methylcarbamoyl)phenyl]-2-[(3R)-3,4-dimethylpiperazin-1-yl]phenyl]-1-methyl-6-oxopyridine-3-carboxamide]",3.43
4,"CC1CN(c2cc(F)c(-c3cc(F)c(C(N)=O)c(F)c3)cc2NC(=O)c2ccc(F)cc2C(F)(F)F)CCN1C (stereo in doubt) [Example 657, 2,6-difluoro-4-[2-fluoro-5-[[4-fluoro-2-(trifluoromethyl)benzoyl]amino]-4-[(3R)-3,4-dimethylpiperazin-1-yl]phenyl]benzamide]",4.69
5,"CC1CN(c2cc(F)c(-c3ccnc(N4CCOCC4)n3)cc2NC(=O)c2cn(C)c(=O)cc2C(F)F)CCN1C (stereo in doubt) [Example 664, 4-(difluoromethyl)-N-[4-fluoro-5-(2-morpholin-4-ylpyrimidin-4-yl)-2-[(3R)-3,4-dimethylpiperazin-1-yl]phenyl]-1-methyl-6-oxopyridine-3-carboxamide]",2.68
6,"CC1CN(c2cc(F)c(-c3ccc(C(=O)NC(C)(C)CC(C)(C)C)c(F)c3F)cc2NC(=O)c2ccc(F)cc2C(F)(F)F)CCN1C (stereo in doubt) [Example 666, 2,3-difluoro-4-[2-fluoro-5-[[4-fluoro-2-(trifluoromethyl)benzoyl]amino]-4-[(3R)-3,4-dimethylpiperazin-1-yl]phenyl]-N-(2,4,4-trimethylpentan-2-yl)benzamide]",117

# The remaining lines, values ahead:
row,Kd [nM],Structure (SMILES)
1,1.87,"CC1CN(c2cc(F)c(C3=CCCN(c4ncccn4)C3)cc2NC(=O)c2ccc(F)cc2C(F)(F)F)CCN1C (stereo in doubt) [Example 649, 4-fluoro-N-[4-fluoro-5-(1-pyrimidin-2-yl-3,6-dihydro-2H-pyridin-5-yl)-2-[(3R)-3,4-dimethylpiperazin-1-yl]phenyl]-2-(trifluoromethyl)benzamide]"
2,5.18,"CC1CN(c2cc(F)c(C3=CCCN(c4ncc(C=O)cn4)C3)cc2NC(=O)c2ccc(F)cc2C(F)(F)F)CCN1C (stereo in doubt) [Example 650, 4-fluoro-N-[4-fluoro-5-[1-(5-formylpyrimidin-2-yl)-3,6-dihydro-2H-pyridin-5-yl]-2-[(3R)-3,4-dimethylpiperazin-1-yl]phenyl]-2-(trifluoromethyl)benzamide]"
3,1.06,"CC1CN(c2cc(F)c(-c3ccnc(N4CCOCC4)n3)cc2NC(=O)c2ccc(F)cc2C(F)F)CCN1C (stereo in doubt) [Example 655, 2-(difluoromethyl)-4-fluoro-N-[4-fluoro-5-(2-morpholin-4-ylpyrimidin-4-yl)-2-[(3R)-3,4-dimethylpiperazin-1-yl]phenyl]benzamide]"
4,0.29,"C[C@@H]1CN(c2nccc(-c3cc(NC(=O)c4ccc(F)cc4C(F)(F)F)c(N4CCN(C)[C@H](C)C4)cc3F)n2)CCO1 (stereo in doubt) [Example 660, 4-fluoro-N-[4-fluoro-2-[(3R)-3,4-dimethylpiperazin-1-yl]-5-[2-[(2R)-2-methylmorpholin-4-yl]pyrimidin-4-yl]phenyl]-2-(trifluoromethyl)benzamide]"
